Laboratory results: patent publication US10285943B2, “Aptamer bioconjugate drug delivery device” (GreenMark Biomedical Inc., priority 2010, dated 2019)

Tested on: D 245 glioblastoma multiform human xenograph
Assay: In vivo studies of human xenographs implanted in athymic mice
Conditions: Free Dox control
Procedure: Athymic mice were chosen for these studies because normal mice are capable of immunologically rejecting implanted foreign xenographs, specifically human tumors. The animals (both control and treated) were monitored for tumor regression and survival.
The procedure consisted of inoculation of a tumor brei into a subcutaneous site in athymic mice. The subcutaneous tumors were grown to approximately 200 cubic millimeters in size (6-8 mm in diameter). Subsequently, either the free drug or the drug loaded nanoparticles were injected at the tumor site or i.p. (intra peritoneal). […] The animals were treated in groups of 8 to 10 individuals.
Dispersions were 100 mg nanospheres/5 mL saline (1×0.5% Dox-nano), 200 mg nanospheres/5 mL saline (2×0.5% Dox-nano) or 400 mg nanospheres/5 mL saline (4×0.5% Dox-nano).
Injections were each 0.25 mL/20 gram mouse (all single injections).
T-C is defined as: Average of (days lived by drug-treated animal minus days lived by control animals); i.e., increased life span in days.
The Control was provided as follows: Varied—Untreated mice injected with saline; Untreated mice; Mice treated with drug-free nanospheres (100 mgs/5 mL saline).
P value: Test run for significance. P values are calculated using non-parametric statistical method by Hollander and Wolfe.
Regressions: Indicate that tumors drop below previous measurement and stay below for 2 consecutive measurements.

In the case of “(7S,9S)-7-[(2R,4S,5S,6S)-4-amino-5-hydroxy-6-methyloxan-2-yl]oxy-6,9,11-trihydroxy-9-(2-hydroxyethyl)-4-methoxy-8,10-dihydro-7H-tetracene-5,12-dione [Free Dox]”, the Regressions (5 mg/kg, animals with regression/group) is reported as 0/10, the Toxic deaths (5 mg/kg, deaths/group) is reported as 0/10 and the “T-C (increased life span in days)” value (drug dose 5 mg/kg, injected at the tumor site or i.p.) is reported as 1.53 days.
